From US20230113037A1 (Bayer Aktiengesellschaft, priority 2019, published 2023)

How the values were obtained:
AHR [1] = molecular target: T1, AHR (Mus musculus, UniProt P30561); test: In vitro assay 3: antagonism in mouse cell line (AHR transactivation, firefly luciferase reporter, kynurenic acid prestimulated); type: cell-based; conditions: mouse Hepa 1c1c7 cells, 200 μM kynurenic acid, 20 hours, read-out: AHR Antagonism Mouse IC50
T1 sequence (P30561 1-848 P471L/N533S/M589L): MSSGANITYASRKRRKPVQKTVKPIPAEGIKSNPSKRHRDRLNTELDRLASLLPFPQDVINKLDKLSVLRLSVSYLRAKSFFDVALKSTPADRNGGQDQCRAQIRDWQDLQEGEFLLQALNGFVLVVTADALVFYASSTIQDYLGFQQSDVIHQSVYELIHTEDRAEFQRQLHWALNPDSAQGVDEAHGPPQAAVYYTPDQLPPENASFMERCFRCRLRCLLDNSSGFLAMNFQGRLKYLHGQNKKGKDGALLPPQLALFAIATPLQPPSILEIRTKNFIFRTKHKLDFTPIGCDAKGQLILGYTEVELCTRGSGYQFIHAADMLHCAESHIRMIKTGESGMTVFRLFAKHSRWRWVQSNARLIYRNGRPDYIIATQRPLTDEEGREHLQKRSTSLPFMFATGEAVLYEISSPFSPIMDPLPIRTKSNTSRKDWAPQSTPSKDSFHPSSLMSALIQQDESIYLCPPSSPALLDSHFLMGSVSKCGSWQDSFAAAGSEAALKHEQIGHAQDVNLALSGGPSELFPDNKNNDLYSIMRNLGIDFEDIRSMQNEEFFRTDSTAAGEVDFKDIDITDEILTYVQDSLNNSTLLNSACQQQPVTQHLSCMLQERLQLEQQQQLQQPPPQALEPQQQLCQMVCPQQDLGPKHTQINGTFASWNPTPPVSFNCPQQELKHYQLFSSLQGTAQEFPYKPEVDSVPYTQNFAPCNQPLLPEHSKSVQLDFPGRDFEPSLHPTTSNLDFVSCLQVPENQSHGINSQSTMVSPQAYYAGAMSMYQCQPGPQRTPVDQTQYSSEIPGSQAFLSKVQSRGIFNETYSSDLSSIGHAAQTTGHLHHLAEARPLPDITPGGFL
Procedure, shortened: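 Mouse cells stably carrying a DRE-driven, AHR-inducible firefly luciferase reporter were prestimulated with the endogenous agonist kynurenic acid before compound addition. Luciferase activity was measured by luminescence and normalized to positive and negative controls, with cells lacking kynurenic acid serving as full-inhibition control. Repeat tests are reported as mean or median.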

AHR [2] = molecular target: T2, AHR (Homo sapiens, UniProt P35869); test: In vitro assay 1: antagonism in human cell line (AHR transactivation, firefly luciferase reporter, kynurenic acid prestimulated); type: cell-based; conditions: AHR Antagonism Human IC50 [M]
T2 construct: U87 MG glioblastoma cells (ATCC #HTB-14) endogenously expressing AHR; endogenous in cells; host or cells: U87 MG glioblastoma cells (ATCC #HTB-14)
T2 sequence (P35869 11-848): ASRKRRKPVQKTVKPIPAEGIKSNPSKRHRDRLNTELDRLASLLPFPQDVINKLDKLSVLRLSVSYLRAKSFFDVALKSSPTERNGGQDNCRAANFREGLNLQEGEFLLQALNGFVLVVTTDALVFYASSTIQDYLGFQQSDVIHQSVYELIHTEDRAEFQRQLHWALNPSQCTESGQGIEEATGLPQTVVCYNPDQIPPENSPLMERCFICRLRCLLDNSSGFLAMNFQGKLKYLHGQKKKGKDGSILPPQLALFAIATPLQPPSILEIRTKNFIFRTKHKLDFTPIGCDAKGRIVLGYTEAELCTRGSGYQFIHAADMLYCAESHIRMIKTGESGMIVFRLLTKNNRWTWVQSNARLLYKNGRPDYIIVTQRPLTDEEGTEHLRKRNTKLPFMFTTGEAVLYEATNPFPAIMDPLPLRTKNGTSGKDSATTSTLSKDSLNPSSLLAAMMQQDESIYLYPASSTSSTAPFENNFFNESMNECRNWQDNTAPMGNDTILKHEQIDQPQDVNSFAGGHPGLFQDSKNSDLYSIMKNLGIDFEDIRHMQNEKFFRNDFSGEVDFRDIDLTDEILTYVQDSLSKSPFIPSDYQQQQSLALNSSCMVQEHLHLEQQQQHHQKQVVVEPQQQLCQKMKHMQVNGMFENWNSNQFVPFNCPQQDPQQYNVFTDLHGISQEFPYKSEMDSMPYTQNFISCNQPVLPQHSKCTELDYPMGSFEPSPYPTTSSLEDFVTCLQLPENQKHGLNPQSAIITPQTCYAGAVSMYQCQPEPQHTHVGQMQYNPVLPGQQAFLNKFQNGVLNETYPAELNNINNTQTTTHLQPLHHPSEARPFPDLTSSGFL
Procedure, shortened: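 U87 MG glioblastoma cells with endogenous AHR, stably carrying a DRE-driven firefly luciferase reporter and constitutive Renilla reporter, prestimulated with kynurenic acid before compound addition. Firefly and Renilla read by dual luciferase; Renilla flags toxicity; normalized to controls (150 μM kynurenic acid + 5 μM staurosporine as full inhibition); repeat values averaged or median.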

| SMILES | IC50 (AHR [1]) | IC50 (AHR [2]) |
| --- | --- | --- |
| COc1ccc2nc(N[C@@H]3CCCCNC3=O)n3nc(-c4ccccc4F)nc3c2c1 [Example 240, (3R)-3-{[2-(2-fluorophenyl)-9-methoxy[1,2,4]triazolo[1,5-c]quinazolin-5-yl]amino}azepan-2-one] | 0.171 µM | 4.08e-08 M |
| Cn1cc(-c2nc3c4c(F)cccc4nc(N[C@@H]4CCCCNC4=O)n3n2)cn1 [Example 244, (3R)-3-{[10-fluoro-2-(1-methyl-1H-pyrazol-4-yl)[1,2,4]triazolo[1,5-c]quinazolin-5-yl]amino}azepan-2-one] | 0.0667 µM | 2.17e-08 M |
| COc1ccc(-c2nc3c4c(OC)cccc4nc(N[C@@H]4CCCCNC4=O)n3n2)cc1 [Example 245, (3R)-3-{[10-methoxy-2-(4-methoxyphenyl)[1,2,4]triazolo[1,5-c]quinazolin-5-yl]amino}azepan-2-one] | 0.31 µM | 3.21e-08 M |
| Cn1cc(-c2nc3c4c(C#N)cccc4nc(N[C@@H]4CCCCNC4=O)n3n2)cn1 [Example 247, 2-(1-methyl-1H-pyrazol-4-yl)-5-{[(3R)-2-oxoazepan-3-yl]amino}[1,2,4]triazolo[1,5-c]quinazoline-10-carbonitrile] | 0.591 µM | 3.08e-07 M |
| COC(=O)c1cccc2c1nc(N[C@@H]1CCCCNC1=O)n1nc(-c3ccc(OC)cc3)nc21 [Example 250, Methyl 2-(4-methoxyphenyl)-5-{[(3R)-2-oxoazepan-3-yl]amino}[1,2,4]triazolo[1,5-c]quinazoline-7-carboxylate] | 0.135 µM | 1.43e-08 M |
| COC(=O)c1cccc2nc(N[C@@H]3CCCCNC3=O)n3nc(-c4ccc(OC)cc4)nc3c12 [Example 252, methyl 2-(4-methoxyphenyl)-5-{[(3R)-2-oxoazepan-3-yl]amino}[1,2,4]triazolo[1,5-c]quinazoline-10-carboxylate] | 0.0498 µM | 6.55e-08 M |
| Cn1cc(-c2nc3c4cccc(Cl)c4nc(N[C@@H]4CNCCNC4=O)n3n2)cn1 [Example 253, (6R)-6-{[7-Chloro-2-(1-methyl-1H-pyrazol-4-yl)[1,2,4]triazolo[1,5-c]quinazolin-5-yl]amino}-1,4-diazepan-5-one] | 0.0368 µM | 2.71e-08 M |
| Cn1ccc(-c2nc3c4ccccc4nc(N[C@@H]4CNCCNC4=O)n3n2)n1 [Example 257, (6R)-6-{[2-(1-methyl-1H-pyrazol-3-yl)[1,2,4]triazolo[1,5-c]quinazolin-5-yl]amino}-1,4-diazepan-5-one] | 12.1 µM | 6.29e-06 M |
| O=C1NCCNC[C@H]1Nc1nc2ccccc2c2nc(-c3ccco3)nn12 [Example 258, (6R)-6-{[2-(furan-2-yl)[1,2,4]triazolo[1,5-c]quinazolin-5-yl]amino}-1,4-diazepan-5-one] | 0.398 µM | 7.15e-07 M |
| O=C1NCCNC[C@H]1Nc1nc2ccccc2c2nc(-c3cccc(F)c3)nn12 [Example 261, (6R)-6-{[2-(3-fluorophenyl)[1,2,4]triazolo[1,5-c]quinazolin-5-yl]amino}-1,4-diazepan-5-one] | 0.0466 µM | 7.39e-08 M |
| O=C1NCCNC[C@H]1Nc1nc2ccccc2c2nc(-c3ccccc3C(F)(F)F)nn12 [Example 262, (6R)-6-({2-[2-(trifluoromethyl)phenyl][1,2,4]triazolo[1,5-c]quinazolin-5-yl}amino)-1,4-diazepan-5-one] | 0.0857 µM | 1.37e-06 M |
| O=C1NCCNC[C@H]1Nc1nc2ccccc2c2nc(-c3cn[nH]c3)nn12 [Example 264, (6R)-6-{[2-(1H-pyrazol-4-yl)[1,2,4]triazolo[1,5-c]quinazolin-5-yl]amino}-1,4-diazepan-5-one] | > 20 µM | > 2e-05 M |
| COc1ccc(-c2nc3c4cccc(OC)c4nc(N[C@@H]4CNCCNC4=O)n3n2)cc1 [Example 265, (6R)-6-{[7-methoxy-2-(4-methoxyphenyl)[1,2,4]triazolo[1,5-c]quinazolin-5-yl]amino}-1,4-diazepan-5-one] | 0.373 µM | 2.38e-07 M |

These reach a lower IC50 (AHR [1]). Values come first.

| IC50 (AHR [1]) | IC50 (AHR [2]) | SMILES |
| --- | --- | --- |
| 0.0148 µM | 4.02e-09 M | COc1ccc(-c2nc3c4c(C)cccc4nc(N[C@@H]4CCCCNC4=O)n3n2)cc1 [Example 243, (3R)-3-{[2-(4-methoxyphenyl)-10-methyl[1,2,4]triazolo[1,5-c]quinazolin-5-yl]amino}azepan-2-one] |
| 0.0112 µM | 3.32e-09 M | COc1ccc(-c2nc3c4c(C#N)cccc4nc(N[C@@H]4CCCCNC4=O)n3n2)cc1 [Example 246, 2-(4-methoxyphenyl)-5-{[(3R)-2-oxoazepan-3-yl]amino}[1,2,4]triazolo[1,5-c]quinazoline-10-carbonitrile] |
| 0.0102 µM | 8.92e-09 M | COc1ccc2nc(N[C@@H]3CCCCNC3=O)n3nc(-c4ccc(F)cc4)nc3c2c1 [Example 239, (3R)-3-{[2-(4-fluorophenyl)-9-methoxy[1,2,4]triazolo[1,5-c]quinazolin-5-yl]amino}azepan-2-one] |
| 0.00893 µM | 3.86e-07 M | O=C1NCCNC[C@H]1Nc1nc2ccccc2c2nc(-c3cccc(Cl)c3Cl)nn12 [Example 263, (6R)-6-{[2-(2,3-dichlorophenyl)[1,2,4]triazolo[1,5-c]quinazolin-5-yl]amino}-1,4-diazepan-5-one] |
| 0.0051 µM | 4.98e-08 M | O=C1NCCNC[C@H]1Nc1nc2ccccc2c2nc(-c3ccc(Br)cc3Cl)nn12 [Example 255, (6R)-6-{[2-(4-bromo-2-chlorophenyl)[1,2,4]triazolo[1,5-c]quinazolin-5-yl]amino}-1,4-diazepan-5-one] |
| 0.00363 µM | 2.96e-08 M | N#Cc1cccc2nc(N[C@@H]3CCCCNC3=O)n3nc(-c4cccc(F)c4)nc3c12 [Example 249, 2-(3-fluorophenyl)-5-{[(3R)-2-oxoazepan-3-yl]amino}[1,2,4]triazolo[1,5-c]quinazoline-10-carbonitrile] |
| 0.00302 µM | 3.06e-09 M | COc1ccc(-c2nc3c4cc(Br)ccc4nc(N[C@@H]4CCCCNC4=O)n3n2)cc1 [Example 242, (3R)-3-{[9-bromo-2-(4-methoxypheny)[1,2,4]triazolo[1,5-c]quinazolin-5-yl]amino}azepan-2-one] |
| 0.00217 µM | 3.29e-09 M | O=C1NCCNC[C@H]1Nc1nc2c(Br)cccc2c2nc(-c3ccccc3OC(F)(F)F)nn12 [Example 266, (6R)-6-({7-bromo-2-[2-(trifluoromethoxy)phenyl][1,2,4]triazolo[1,5-c]quinazolin-5-yl}amino)-1,4-diazepan-5-one] |
| 0.00193 µM | 1.27e-09 M | COc1ccc(-c2nc3c4cc(C)ccc4nc(N[C@@H]4CCCCNC4=O)n3n2)cc1 [Example 241, (3R)-3-{[2-(4-methoxyphenyl)-9-methyl[1,2,4]triazolo[1,5-c]quinazolin-5-yl]amino}azepan-2-one] |
| 0.00182 µM | 5.71e-09 M | N#Cc1cccc2nc(N[C@@H]3CCCCNC3=O)n3nc(-c4ccc(F)cc4)nc3c12 [Example 248, 2-(4-fluorophenyl)-5-{[(3R)-2-oxoazepan-3-yl]amino}[1,2,4]triazolo[1,5-c]quinazoline-10-carbonitrile] |
